Measurements: the supplement of paper PMC10307832

Experiments:
Assay in all cases: relative viability (nuclei count vs DMSO), 5 days (fraction); higher = more cells survive
[1] = compound: CC(C)(C)c1nc(-c2cccc(NS(=O)(=O)c3c(F)cccc3F)c2F)c(-c2ccnc(N)n2)s1 [Dabrafenib] + CC(C)C[C@H](NC(=O)[C@H](Cc1ccccc1)NC(=O)c1cnccn1)B(O)O [Bortezomib] (partner 0.002 µM)
Outline: (§1)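 One day after seeding in 1536-well plates, lung cancer cell lines were dosed by pin tool. Dosing was either single-drug or a fixed anchor-drug dose plus five library-drug doses (not always all listed) in √10 steps. After 5 days, nuclei were stained in one fix-and-stain step and counted on 4× images, and relative viability is the nuclei count of treated wells over that of vehicle wells, given as the median of duplicate plates.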

[2] = compound: CC(C)(C)c1nc(-c2cccc(NS(=O)(=O)c3c(F)cccc3F)c2F)c(-c2ccnc(N)n2)s1 [Dabrafenib] + O=C(CCCCCCC(=O)Nc1ccccc1)NO [Vorinostat] (partner 1 µM)
Outline: as §1

[3] = compound: NC(=O)c1ccc(N(C(N)=O)c2c(F)cccc2F)nc1-c1ccc(F)cc1F [VX-702] + N=C(N)NC(=N)NCCc1ccccc1 [Phenformin] (partner 250 µM)
Outline: as §1

[4] = compound: NC(=O)c1ccc(N(C(N)=O)c2c(F)cccc2F)nc1-c1ccc(F)cc1F [VX-702] + NC(=O)Nc1cc(-c2cccc(F)c2)sc1C(=O)N[C@H]1CCCNC1 [AZD7762] (partner 0.2 µM)
Outline: as §1

Cell Line | relative viability ([1]; first compound 0.009487 µM) | relative viability ([1]; first compound 0.03 µM) | relative viability ([1]; first compound 0.09487 µM) | relative viability ([1]; first compound 0.3 µM) | relative viability ([2]; first compound 0.009487 µM) | relative viability ([2]; first compound 0.03 µM) | relative viability ([2]; first compound 0.09487 µM) | relative viability ([2]; first compound 0.3 µM) | relative viability ([3]; first compound 0.02 µM) | relative viability ([3]; first compound 0.2 µM) | relative viability ([3]; first compound 0.6325 µM) | relative viability ([3]; first compound 2 µM) | relative viability ([4]; first compound 0.02 µM) | relative viability ([4]; first compound 0.2 µM) | relative viability ([4]; first compound 0.6325 µM) | relative viability ([4]; first compound 2 µM) | relative viability ([1]; first compound 0.003 µM) | relative viability ([2]; first compound 0.003 µM)
LCLC-97TM1 | 0.643 | 0.782 | 0.162 | 0.469 | 0.928 | 0.695 | 0.283 | 0.596 | 0.439 | 0.434 | 0.43 | 0.482 | 0.356 | 0.175 | 0.301 | 0.301 |  | 
LCLC-103H | 1.14 | 0.995 | 1.09 | 1.01 | 0.772 | 0.576 | 0.765 | 0.816 | 0.344 | 0.344 | 0.316 | 0.325 | 0.76 | 0.816 | 0.825 | 0.873 | 1.06 | 0.627
LOU-NH91 | 0.457 | 0.524 | 0.456 | 0.497 | 0.941 | 0.964 | 0.941 | 1.07 | 0.796 | 0.819 | 0.807 | 0.504 | 0.766 | 0.753 | 0.721 | 0.695 |  | 
LU99A | 0.99 | 1.15 | 1.1 | 0.887 | 0.492 | 0.457 | 0.406 | 0.391 | 0.957 | 0.851 | 0.792 | 0.643 | 0.35 | 0.372 | 0.368 | 0.234 | 1.16 | 0.549
LXF-289 | 1.01 | 1.18 | 0.969 | 1.13 | 0.779 | 0.759 | 0.674 | 0.789 | 0.538 | 0.534 | 0.5 | 0.527 | 1.15 | 1.14 | 1.15 | 1.16 | 0.949 | 0.73
NCI-H23 | 0.95 | 0.861 | 0.643 | 1.07 | 0.548 | 0.592 | 0.354 | 0.409 | 0.787 | 0.77 | 0.884 | 0.875 | 0.294 | 0.35 | 0.305 | 0.208 |  | 
NCI-H322M | 1.26 |  | 1.3 | 1.34 | 0.962 |  | 0.822 | 0.74 | 0.744 | 0.757 | 0.742 | 0.915 | 0.544 | 0.558 | 0.537 | 0.499 |  | 
NCI-H441 | 0.453 | 0.393 | 0.323 | 0.35 | 0.725 | 0.994 | 0.804 | 0.839 | 0.829 | 0.992 | 0.687 | 0.918 | 1.25 | 1.08 | 1.13 | 1.02 |  | 
NCI-H460 | 1.06 | 1.14 | 1.05 | 1.08 | 0.712 | 0.662 | 0.641 | 0.639 | 0.532 | 0.551 | 0.608 | 0.373 | 0.732 | 0.585 | 0.721 | 0.638 | 1.28 | 0.744
NCI-H596 | 1 | 0.818 | 0.895 | 0.986 | 0.723 | 0.416 | 0.725 | 0.515 | 0.587 | 0.749 | 0.797 | 0.742 | 1.1 | 1.03 | 1.12 | 1.09 | 0.6 | 
NCI-H647 | 0.778 | 0.789 | 1.19 | 1.03 | 0.529 | 0.445 | 0.401 | 0.524 | 0.487 | 0.654 | 0.46 | 0.728 | 0.461 | 0.386 | 0.494 | 0.567 |  | 0.814
NCI-H650 | 0.865 | 0.645 | 0.494 | 0.453 | 0.346 | 0.408 | 0.241 | 0.218 | 0.515 |  | 0.44 | 0.524 | 0.943 | 0.894 | 0.936 | 1.16 |  | 
NCI-H727 | 0.848 | 0.882 | 0.795 | 0.873 | 1.27 |  | 0.995 | 1.19 | 0.618 | 0.607 | 0.568 | 0.499 | 0.436 | 0.526 | 0.502 | 0.574 |  | 0.538
NCI-H838 | 0.973 | 0.417 | 0.715 | 1.09 | 0.752 | 0.713 | 0.711 | 0.759 | 0.607 | 0.609 | 0.557 | 0.669 | 0.937 | 0.912 | 1.05 | 0.903 | 0.74 | 0.693
NCI-H1355 | 1.22 | 1.12 |  | 1.29 | 0.672 | 0.641 | 0.581 | 0.633 | 0.53 | 0.445 | 0.482 | 0.494 | 0.867 | 0.672 | 0.83 | 0.813 |  | 
NCI-H1437 | 0.529 | 0.518 | 0.534 | 0.516 | 0.813 | 0.907 | 0.802 | 0.872 | 0.326 | 0.352 | 0.31 | 0.313 | 1.06 | 1.16 | 1.23 | 1.16 | 0.299 | 0.839

Cell Line | relative viability ([1]; first compound 0.009487 µM) | relative viability ([1]; first compound 0.03 µM) | relative viability ([1]; first compound 0.09487 µM) | relative viability ([1]; first compound 0.3 µM) | relative viability ([2]; first compound 0.009487 µM) | relative viability ([2]; first compound 0.03 µM) | relative viability ([2]; first compound 0.09487 µM) | relative viability ([2]; first compound 0.3 µM) | relative viability ([3]; first compound 0.02 µM) | relative viability ([3]; first compound 0.2 µM) | relative viability ([3]; first compound 0.6325 µM) | relative viability ([3]; first compound 2 µM) | relative viability ([4]; first compound 0.02 µM) | relative viability ([4]; first compound 0.2 µM) | relative viability ([4]; first compound 0.6325 µM) | relative viability ([4]; first compound 2 µM) | relative viability ([1]; first compound 0.003 µM) | relative viability ([2]; first compound 0.003 µM)
NCI-H1651 | 0.887 | 0.972 | 0.946 | 0.862 | 0.533 | 0.573 | 0.419 | 0.544 | 0.37 | 0.34 | 0.341 | 0.301 | 0.474 | 0.429 | 0.468 | 0.455 | 0.857 | 0.567
NCI-H1666 |  | 0.957 | 0.859 | 0.814 | 0.937 | 1.19 | 0.972 | 1.15 | 0.562 |  | 0.563 | 0.633 | 0.925 | 0.837 | 0.922 | 0.693 | 0.806 | 1.05
NCI-H1734 | 0.936 | 0.549 | 0.757 | 0.828 | 0.85 | 0.627 | 0.708 | 0.759 | 0.403 | 0.355 | 0.369 | 0.298 | 0.561 | 0.448 | 0.521 | 0.465 |  | 
NCI-H1755 | 0.924 | 0.908 | 0.914 | 0.903 | 0.726 | 0.558 | 0.771 | 0.728 | 0.638 | 0.608 | 0.611 | 0.62 | 0.456 | 0.442 | 0.447 | 0.367 | 0.972 | 0.849
NCI-H1915 | 0.99 | 0.899 | 0.584 | 0.502 | 0.576 | 0.414 | 0.219 | 0.206 | 0.366 | 0.374 | 0.363 | 0.384 | 0.697 | 0.728 | 0.712 | 0.718 | 0.975 | 0.544
NCI-H1975 | 0.432 | 0.374 | 0.49 | 0.429 | 0.742 | 0.741 | 0.705 | 0.663 | 0.432 | 0.413 | 0.413 | 0.418 | 0.663 | 0.741 | 0.763 | 0.815 | 0.333 | 0.636
NCI-H1993 | 1.46 | 1.31 | 1.24 | 1.7 | 1.35 | 0.735 | 0.631 | 1.09 | 0.498 | 0.493 | 0.518 | 0.562 | 0.434 | 0.694 | 0.736 | 0.65 | 1.2 | 0.753
NCI-H2085 | 1.13 | 0.896 | 0.976 | 1.04 | 1.01 | 0.801 | 0.79 | 0.748 | 0.718 | 0.728 | 0.704 | 0.702 | 1.04 | 1.01 | 1.06 | 1.03 | 1.03 | 0.669
NCI-H2087 | 0.752 | 0.564 | 0.648 | 0.761 | 0.8 | 0.779 | 0.594 | 0.809 | 0.481 | 0.445 | 0.422 | 0.528 | 1.53 | 1.35 | 1.54 | 1.34 | 0.814 | 
NCI-H2126 | 1.1 | 1.12 | 1.13 | 1.15 | 0.916 | 0.767 | 0.888 | 0.993 | 0.545 | 0.521 | 0.51 | 0.507 | 0.995 | 0.979 | 1.02 | 1.05 | 1.1 | 0.693
NCI-H2347 | 1.2 |  |  | 0.84 | 0.603 | 0.385 | 0.551 | 0.591 | 0.574 |  | 0.395 | 0.425 | 0.746 | 0.8 | 0.787 | 0.699 |  | 
NCI-H2405 | 0.91 | 0.766 | 0.867 | 0.959 | 1 | 0.488 | 0.81 | 0.962 | 0.457 | 0.437 | 0.385 | 0.401 | 0.822 | 0.766 | 0.784 | 0.826 |  | 
NCI-H3122 | 1.01 | 1.12 | 1.06 | 1.1 | 0.966 | 0.916 | 0.991 | 1.02 | 0.409 | 0.388 | 0.44 | 0.424 | 1.07 | 1.05 | 1.03 | 1.01 | 1.04 | 0.978
PC-3 [JPC-3] | 0.9 | 0.773 | 0.875 | 0.857 | 0.981 | 0.713 | 0.771 | 1.12 | 0.484 | 0.491 | 0.457 | 0.464 | 0.797 | 0.853 | 0.894 | 0.84 | 0.745 | 
PC-14 | 0.846 | 0.817 | 0.919 | 1.03 | 0.829 | 0.737 | 0.757 | 0.73 | 0.618 | 0.547 | 0.689 | 0.483 | 0.411 | 0.353 | 0.37 | 0.265 | 0.968 | 
RERF-LC-KJ | 1.33 | 1.05 | 1.05 | 1.13 | 0.779 | 0.706 | 0.618 | 0.789 | 0.401 | 0.449 | 0.369 | 0.517 | 1.25 | 0.963 | 1.11 | 1.09 | 1.02 | 0.745
